# Values quoted from earlier work as cited in patent EP4302755B1, “PALBOCICLIB FORMULATION CONTAINING AN AMINO ACID” (Lotus Pharmaceutical Co., Ltd., priority 2022, dated 2024).
# Like-named read-outs stand apart in the source and are kept apart here.
# What was measured:
# [1] = at low pH (2.1-4.5)
compound,measurement,setting,value
CC(=O)c1c(C)c2cnc(Nc3ccc(N4CCNCC4)cn3)nc2n(C2CCCC2)c1=O [Palbociclib],pKa,the pyridine nitrogen,~4.1
same,pKa,the secondary piperazine nitrogen,approximately 7.3
same,solubility,[1],water soluble
